Earlier results, collected in patent US10434065B2, “Microfluidic liposome synthesis, purification and active drug loading” (University of Maryland, College Park, priority 2013, dated 2019).
Where a name gives a salt, the structure may show the parent alone.

pKa: 10.4
Structure (SMILES): CN(C)c1ccc2cc3ccc(N(C)C)cc3nc2c1 [AO, Acridine Orange hydrochloride]
